Measurements published in US9296725B2, “Heterocyclyl pyrimidine analogues as TYK2 inhibitors” (Cellzome Limited, priority 2012, dated 2016).

How the values were obtained:
[1] = target: T1, TYK2 (Homo sapiens, UniProt P29597); test: Kinobeads assay, TYK2 (competition binding in mixed Molt4/Ramos cell lysate, dot blot detection); conditions: Kinobeads assay, Molt4/Ramos lysate; read-out: TYK2 Band (Kinobeads assay potency, IC50)
T1 construct: endogenous in cells; host or cells: Molt4 (ATCC CRL-1582) and Ramos (ATCC CRL-1596), mixed lysate 1:2
Summary of the method: (§1)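 JAK2 and TYK2 retained on Kinobeads (immobilized aminopyrido-pyrimidine ligand) from 1:2 Molt4:Ramos lysate (10 mg/mL) were quantified by antibody dot blot (Odyssey infrared) after 3 h cold incubation with compound. Nine-step 1:3 dilution series; IC50 calculated from curves.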

[2] = target: T2, JAK2 (Homo sapiens, UniProt O60674); test: Kinobeads assay, JAK2 (competition binding in mixed Molt4/Ramos cell lysate, dot blot detection); conditions: read-out: JAK2 Band (Kinobeads assay potency, IC50)
T2 construct: endogenous in cells; host or cells: Molt4 (ATCC CRL-1582) and Ramos (ATCC CRL-1596), mixed lysate 1:2
Summary of the method: as §1

T1 sequence (P29597 whole entry): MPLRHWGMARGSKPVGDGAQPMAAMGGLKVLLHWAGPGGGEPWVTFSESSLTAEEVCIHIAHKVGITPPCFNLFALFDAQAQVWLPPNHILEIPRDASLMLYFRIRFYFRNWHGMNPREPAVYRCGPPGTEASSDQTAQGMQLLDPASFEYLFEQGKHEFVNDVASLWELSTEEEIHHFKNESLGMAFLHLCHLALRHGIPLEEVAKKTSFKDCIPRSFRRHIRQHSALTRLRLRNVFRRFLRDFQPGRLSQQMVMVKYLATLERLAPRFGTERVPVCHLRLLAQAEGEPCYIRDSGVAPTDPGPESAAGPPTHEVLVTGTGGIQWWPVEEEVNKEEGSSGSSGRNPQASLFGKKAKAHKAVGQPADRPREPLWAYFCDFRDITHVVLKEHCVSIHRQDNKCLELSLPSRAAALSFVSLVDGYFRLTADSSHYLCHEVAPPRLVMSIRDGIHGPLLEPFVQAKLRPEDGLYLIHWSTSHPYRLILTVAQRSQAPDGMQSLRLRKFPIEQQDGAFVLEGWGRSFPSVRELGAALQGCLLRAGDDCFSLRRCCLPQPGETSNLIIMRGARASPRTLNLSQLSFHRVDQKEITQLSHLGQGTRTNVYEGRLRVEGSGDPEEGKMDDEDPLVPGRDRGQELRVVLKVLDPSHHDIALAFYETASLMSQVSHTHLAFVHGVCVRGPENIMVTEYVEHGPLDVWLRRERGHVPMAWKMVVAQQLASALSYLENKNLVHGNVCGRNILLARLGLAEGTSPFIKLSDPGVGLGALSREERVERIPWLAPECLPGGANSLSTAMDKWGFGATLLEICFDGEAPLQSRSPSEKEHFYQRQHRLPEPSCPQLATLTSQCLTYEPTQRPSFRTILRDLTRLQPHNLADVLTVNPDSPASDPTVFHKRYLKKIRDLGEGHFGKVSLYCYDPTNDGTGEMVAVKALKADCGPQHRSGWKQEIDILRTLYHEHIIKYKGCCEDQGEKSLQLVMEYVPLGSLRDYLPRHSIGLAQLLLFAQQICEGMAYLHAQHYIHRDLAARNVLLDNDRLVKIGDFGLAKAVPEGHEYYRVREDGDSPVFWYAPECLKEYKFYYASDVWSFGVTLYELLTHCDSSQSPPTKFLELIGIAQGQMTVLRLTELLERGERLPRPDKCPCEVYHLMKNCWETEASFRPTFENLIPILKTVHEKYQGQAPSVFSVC
T2 sequence (O60674 whole entry): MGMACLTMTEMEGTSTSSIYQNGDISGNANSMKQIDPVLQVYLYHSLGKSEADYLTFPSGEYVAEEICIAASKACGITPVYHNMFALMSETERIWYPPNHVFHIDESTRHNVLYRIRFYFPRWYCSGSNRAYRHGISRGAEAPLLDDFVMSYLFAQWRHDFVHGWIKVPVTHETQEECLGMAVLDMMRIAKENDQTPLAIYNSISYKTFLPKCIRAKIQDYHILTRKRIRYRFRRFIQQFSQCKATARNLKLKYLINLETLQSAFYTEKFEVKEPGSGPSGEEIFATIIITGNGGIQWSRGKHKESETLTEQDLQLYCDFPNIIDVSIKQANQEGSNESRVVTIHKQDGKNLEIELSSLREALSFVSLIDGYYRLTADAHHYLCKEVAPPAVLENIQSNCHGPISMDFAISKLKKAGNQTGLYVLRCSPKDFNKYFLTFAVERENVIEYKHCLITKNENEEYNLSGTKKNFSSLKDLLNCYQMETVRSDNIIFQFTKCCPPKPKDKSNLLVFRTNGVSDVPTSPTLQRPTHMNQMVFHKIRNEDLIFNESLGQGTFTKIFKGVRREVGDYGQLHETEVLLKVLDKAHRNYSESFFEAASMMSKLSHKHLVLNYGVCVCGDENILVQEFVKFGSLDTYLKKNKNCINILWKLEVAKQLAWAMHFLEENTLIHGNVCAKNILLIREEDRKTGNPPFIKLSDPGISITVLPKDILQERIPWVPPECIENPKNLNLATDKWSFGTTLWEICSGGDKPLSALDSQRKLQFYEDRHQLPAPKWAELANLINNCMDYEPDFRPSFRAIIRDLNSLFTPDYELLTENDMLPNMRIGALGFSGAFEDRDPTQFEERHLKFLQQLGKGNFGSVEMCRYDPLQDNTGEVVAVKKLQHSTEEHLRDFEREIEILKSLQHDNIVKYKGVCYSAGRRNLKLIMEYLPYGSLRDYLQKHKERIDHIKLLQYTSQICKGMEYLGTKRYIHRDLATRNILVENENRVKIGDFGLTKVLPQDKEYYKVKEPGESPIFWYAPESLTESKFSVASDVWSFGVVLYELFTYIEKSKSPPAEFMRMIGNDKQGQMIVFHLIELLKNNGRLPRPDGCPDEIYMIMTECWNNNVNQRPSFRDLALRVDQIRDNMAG

Row | SMILES | IC50 [1] [nM] | IC50 [2] [nM]
1 | Cc1cnc(Nc2cnn(CC(=O)N3CCOCC3)c2)nc1NCc1cccc(OC(F)F)c1 [Example I-23] | ≤ 10 | 1000 to 10000
2 | C[C@H](CO)NC(=O)Cn1cc(Nc2nccc(NCc3c(F)ccc(C#N)c3F)n2)cn1 [Example I-154] | ≤ 10 | 1000 to 10000
